Results from ChEMBL document CHEMBL3351513, “Norbornane-based nucleoside and nucleotide analogues locked in North conformation” (Bioorg Med Chem, 2015).
Calls of active or inactive are those of the source. The calls are words filed in the database; no cut-off is given here.

Experiments:
CCRF-CEM = assay: Cytostatic activity against human CEM cells after 72 hrs by Coulter counting
[1] = Cytotoxicity against cat CRFK cells; assay type: cell-based, Felis catus
[2] = Cytotoxicity against human CEM cells infected with HIV2; assay type: cell-based, CCRF-CEM
[3] = Inhibition of human PI4K3beta expressed in Escherichia coli BL21 after 60 mins by ADP-GloTM Kinase Assay
Coxsackievirus B4 = assay: Antiviral activity against Coxsackievirus B4 infected in african green monkey Vero cells assessed as inhibition of virus-induced cytopathicity; assay type: functional, organism-based; conditions: for EC50: Enterovirus B
[4] = system: Human immunodeficiency virus 1; assay: Antiviral activity against HIV1 3B infected in human CEM cells assessed as inhibition of virus-induced syncytium formation by microscopy; conditions: Human immunodeficiency virus 1, 3B, CCRF-CEM
[5] = Cytotoxicity against human CEM cells infected with HIV1; assay type: cell-based, CCRF-CEM; conditions: CEM cells infected with HIV-1
Influenza A virus [6] = assay: Antiviral activity against influenza A virus H1N1 infected in MDCK cells assessed as inhibition of virus-induced cytopathic effect
MDCK = assay: Cytotoxicity against MDCK cells; conditions: Canis lupus familiaris
HeLa = assay: Cytostatic activity against human HeLa cells after 72 hrs by Coulter counting
L1210 = assay: Cytostatic activity against mouse L1210 cells after 48 hrs by Coulter counting; conditions: L1210, 48 h
Felid alphaherpesvirus 1 [7] = assay: Antiviral activity against Feline herpesvirus 1 infected in cat CRFK cells assessed as inhibition of virus induced cytopathicity; conditions: Felid alphaherpesvirus 1, CRFK
[8] = system: Human immunodeficiency virus 2; assay: Antiviral activity against HIV2 ROD infected in human CEM cells assessed as inhibition of virus-induced syncytium formation by microscopy; conditions: Human immunodeficiency virus 2, ISOLATE ROD, CCRF-CEM
[9] = Inhibition of human PI4K3alpha expressed in Escherichia coli BL21 after 60 mins by ADP-GloTM Kinase Assay
[10] = system: Human immunodeficiency virus 2; assay: Antiviral activity against HIV2 ROD infected in human CEM cells assessed as inhibition of virus-induced syncytium formation at 100 uM by microscopy; assay type: functional, organism-based; conditions: ISOLATE ROD, CCRF-CEM
Influenza A virus [11] = assay: Antiviral activity against influenza A virus H1N1 infected in MDCK cells assessed as inhibition of virus-induced cytopathic effect at 100 uM; assay type: functional, organism-based
Felid alphaherpesvirus 1 [12] = assay: Antiviral activity against Feline herpesvirus 1 infected in cat CRFK cells assessed as inhibition of virus induced cytopathicity at 100 uM; assay type: functional, organism-based
[13] = system: Human immunodeficiency virus 1; assay: Antiviral activity against HIV1 3B infected in human CEM cells assessed as inhibition of virus-induced syncytium formation at 100 uM by microscopy; assay type: functional, organism-based; conditions: CCRF-CEM
[14] = Cytotoxicity against african green monkey Vero cells; assay type: cell-based; conditions: chlorocebus sabaeus

Structure (SMILES) | IC50 (CCRF-CEM) [µM] | inhibition (Coxsackievirus B4) | IC50 (HeLa) [µM] | IC50 (L1210) [µM] | other results
Nc1ncnc2c1ncn2[C@@H]1C[C@@]2(CO)CC[C@@H]1C2 | > 386 | inactive | 609 | 408 | CC50 [1]: > 386 µM; CC50 [2]: > 386 µM; IC50 [3]: > 100 µM; EC50 [4]: 100 µM; CC50 [5]: > 386 µM; EC50 (Influenza A virus [6]): 179 µM; EC50 (MDCK): > 386 µg/mL; EC50 (Felid alphaherpesvirus 1 [7]): 58 µM; EC50 [8]: 231 µM; IC50 [9]: > 100 µM
COC(=O)[C@H](C)NP(=O)(OC[C@]12CC[C@H](C1)[C@H](n1cnc3c(NC4CC4)ncnc31)C2)Oc1ccccc1 (relative stereo) | 78 | – | 136 | 129 | –
Nc1nc(N)c2ncn([C@@H]3C[C@@]4(CO)CC[C@@H]3C4)c2n1 (relative stereo) | 174 | – | 190 | 179 | –
CN(C)c1ncnc2c1ncn2[C@@H]1C[C@@]2(CO)CC[C@@H]1C2 (relative stereo) | – | inactive | – | – | –
OC[C@]12CC[C@H](C1)[C@H](n1cnc3c(NC4CC4)ncnc31)C2 (relative stereo) | – | inactive | – | – | –
Nc1nc(NC2CC2)c2ncn([C@@H]3C[C@@]4(CO)CC[C@@H]3C4)c2n1 (relative stereo) | 124 | – | 101 | 146 | –
O=c1[nH]cc(F)c(=O)[nH]1 [FLUOROURACIL] | – | – | 2.6 | – | –
COC(=O)[C@H](C)NP(=O)(OC[C@]12CC[C@H](C1)[C@H](n1cnc3c(N)ncnc31)C2)Oc1ccccc1 (relative stereo) | ≥ 200 | – | > 200 | 160 | inhibition [10]: inactive; inhibition (Influenza A virus [11]): inactive; inhibition (Felid alphaherpesvirus 1 [12]): inactive; inhibition [13]: inactive
OC[C@]12CC[C@H](C1)[C@H](n1cnc3c(=S)[nH]cnc31)C2 (relative stereo) | – | inactive | – | – | –
Nc1nc(Cl)c2ncn([C@@H]3C[C@@]4(CO)CC[C@@H]3C4)c2n1 (relative stereo) | 88 | – | > 340 | 139 | EC50 (Coxsackievirus B4): 31 µM; CC50 [14]: > 359 µM
OC[C@]12CC[C@H](C1)[C@H](n1cnc3c(Cl)ncnc31)C2 (relative stereo) | – | – | – | – | EC50 (Coxsackievirus B4): 25 µM; CC50 [14]: > 359 µM
